Reference: patent US10618918B2, “Substituted boronic acids as antimicrobials” (priority 2015, dated 2020)
Read-outs that look alike come from different tables or passages of the source.

Assays:
[1] = system: KP1005 CTX-M-14; experiment: Tigemonam potentiation (MPC@4), strain KP1005 CTX-M-14; conditions: minimum BLI concentration inhibiting growth with tigemonam 4 μg/mL; tested up to 40 μg/mL
[2] = system: AB1054 OXA-23; experiment: Meropenem potentiation (MPC@8), strain AB1054 OXA-23; assay type: cell-based, Acinetobacter baumannii; conditions: minimum BLI concentration inhibiting growth with meropenem 8 μg/mL; tested up to 20 μg/mL
[3] = system: ec308 SHV-5; experiment: Aztreonam potentiation (MPC@4), strain ec308 SHV-5; conditions: minimum BLI concentration inhibiting growth with aztreonam 4 μg/mL; tested up to 40 μg/mL
[4] = biological target: purified class A, C and D enzymes (β-lactamases) (Klebsiella pneumoniae, UniProt Q9F663); experiment: biochemical; assay type: biochemical; conditions: purified KPC-2; nitrocefin (NCF) as reporter substrate
[5] = biological target: T1, purified class A, C and D enzymes (β-lactamases) (Acinetobacter baumannii, UniProt Q9L4P2); experiment: biochemical; assay type: biochemical; conditions: purified OXA-23; nitrocefin (NCF) as reporter substrate
T1 construct: rows headed: Ki (OXA-23, NCF), uM; other: purified OXA-23; nitrocefin (NCF) as reporter substrate
T1 sequence (Q9L4P2 whole entry): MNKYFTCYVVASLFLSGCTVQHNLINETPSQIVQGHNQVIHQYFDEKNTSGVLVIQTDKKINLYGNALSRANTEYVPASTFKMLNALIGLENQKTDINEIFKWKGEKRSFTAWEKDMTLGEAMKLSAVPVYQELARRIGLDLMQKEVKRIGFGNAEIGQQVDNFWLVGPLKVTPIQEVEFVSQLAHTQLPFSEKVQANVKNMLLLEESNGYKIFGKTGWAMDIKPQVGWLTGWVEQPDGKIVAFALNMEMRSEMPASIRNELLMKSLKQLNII

[6] = biological target: purified class A, C and D enzymes (β-lactamases) (Klebsiella pneumoniae, UniProt Q6XEC0); experiment: biochemical; assay type: biochemical; conditions: purified OXA-48; nitrocefin (NCF) as reporter substrate
[7] = biological target: purified class A, C and D enzymes (β-lactamases) (Escherichia coli, UniProt Q9L5C7); experiment: biochemical; assay type: biochemical; conditions: purified CTX-M-14; nitrocefin (NCF) as reporter substrate
Chain of purified class A, C and D enzymes (β-lactamases) (Escherichia coli, UniProt Q9L5C7) (Q9L5C7 entry or part of it): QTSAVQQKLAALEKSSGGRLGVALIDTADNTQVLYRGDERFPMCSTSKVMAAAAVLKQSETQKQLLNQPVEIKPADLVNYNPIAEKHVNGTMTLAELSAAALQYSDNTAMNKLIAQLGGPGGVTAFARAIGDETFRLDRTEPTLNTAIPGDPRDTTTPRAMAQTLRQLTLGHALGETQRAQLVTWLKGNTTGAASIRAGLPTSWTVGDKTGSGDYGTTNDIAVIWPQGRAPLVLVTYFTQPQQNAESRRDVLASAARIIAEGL

[8] = biological target: T2, purified class A, C and D enzymes (β-lactamases) (Pseudomonas aeruginosa, UniProt P24735); experiment: biochemical; assay type: biochemical
T2 construct: rows headed: Ki (Pa-AmpC, NCF), uM; other: purified Pa-AmpC; nitrocefin (NCF) as reporter substrate
T2 sequence (P24735 whole entry): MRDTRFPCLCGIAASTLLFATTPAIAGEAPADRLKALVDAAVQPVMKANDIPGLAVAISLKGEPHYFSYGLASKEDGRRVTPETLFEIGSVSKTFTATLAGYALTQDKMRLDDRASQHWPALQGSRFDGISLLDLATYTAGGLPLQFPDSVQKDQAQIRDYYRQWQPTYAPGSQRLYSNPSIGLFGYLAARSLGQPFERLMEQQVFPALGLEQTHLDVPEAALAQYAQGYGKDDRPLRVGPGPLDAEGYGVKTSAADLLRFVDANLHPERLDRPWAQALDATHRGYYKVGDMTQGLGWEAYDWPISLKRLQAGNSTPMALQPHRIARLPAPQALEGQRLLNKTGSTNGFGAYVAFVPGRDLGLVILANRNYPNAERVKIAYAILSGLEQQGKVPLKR

[9] = biological target: purified class A, C and D enzymes (β-lactamases) (Enterobacter cloacae, UniProt P05364); experiment: biochemical; assay type: biochemical
Chain of purified class A, C and D enzymes (β-lactamases) (Enterobacter cloacae, UniProt P05364) (P05364 21-381): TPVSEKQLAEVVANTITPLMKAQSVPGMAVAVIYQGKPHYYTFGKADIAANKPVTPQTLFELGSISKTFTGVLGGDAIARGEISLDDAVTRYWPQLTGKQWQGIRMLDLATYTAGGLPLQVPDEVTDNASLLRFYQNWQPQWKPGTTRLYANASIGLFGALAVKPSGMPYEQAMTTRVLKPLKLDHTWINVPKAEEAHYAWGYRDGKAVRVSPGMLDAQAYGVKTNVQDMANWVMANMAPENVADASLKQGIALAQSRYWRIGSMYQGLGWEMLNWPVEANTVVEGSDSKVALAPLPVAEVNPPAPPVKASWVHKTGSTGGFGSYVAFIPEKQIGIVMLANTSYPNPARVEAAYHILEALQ

[10] = system: KP1010 SHV-12; experiment: Aztreonam potentiation (MPC@4), strain KP1010 SHV-12; conditions: minimum BLI concentration inhibiting growth with aztreonam 4 μg/mL; tested up to 40 μg/mL
[11] = system: EC1010 CMY-6; experiment: Aztreonam potentiation (MPC@4), strain EC1010 CMY-6; conditions: minimum BLI concentration inhibiting growth with aztreonam 4 μg/mL; tested up to 40 μg/mL
[12] = system: ECL1002; experiment: Aztreonam potentiation (MPC@4), strain ECL1002; conditions: minimum BLI concentration inhibiting growth with aztreonam 4 μg/mL; tested up to 40 μg/mL
[13] = system: ec302 TEM-10; experiment: Aztreonam potentiation (MPC@4), strain ec302 TEM-10; conditions: minimum BLI concentration inhibiting growth with aztreonam 4 μg/mL; tested up to 40 μg/mL
[14] = system: KP1004 KPC-2; experiment: Aztreonam potentiation (MPC@4), strain KP1004 KPC-2; conditions: minimum BLI concentration inhibiting growth with aztreonam 4 μg/mL; tested up to 40 μg/mL
[15] = system: KP1086 OXA-48; experiment: Biapenem potentiation (MPC@1), strain KP1086 OXA-48; assay type: cell-based; conditions: minimum BLI concentration inhibiting growth with biapenem 1 μg/mL; tested up to 40 μg/mL
Protocol: (§1) Biapenem was present in the test medium at 1 μg/mL. […] Table 3 summarizes the BLI potency of biapenem potentiation (MPC@1) for two strains overexpressing class A (KPC) and class D (OXA-48) carbapenemases. Biapenem MIC for each strain is also shown.

[16] = system: KP1009 CTX-M-15; experiment: Aztreonam potentiation (MPC@4), strain KP1009 CTX-M-15; conditions: minimum BLI concentration inhibiting growth with aztreonam 4 μg/mL; tested up to 40 μg/mL
[17] = system: KP1004 KPC-2; experiment: Biapenem potentiation (MPC@1), strain KP1004 KPC-2; assay type: cell-based; conditions: minimum BLI concentration inhibiting growth with biapenem 1 μg/mL; tested up to 40 μg/mL
Protocol: as §1

[18] = system: AB1053 OXA-72; experiment: Meropenem potentiation (MPC@8), strain AB1053 OXA-72; assay type: cell-based, Acinetobacter baumannii; conditions: minimum BLI concentration inhibiting growth with meropenem 8 μg/mL; tested up to 20 μg/mL

Row | Structure (SMILES) | TIG MPC4 CTX-M-14 KP1005 [1] | MPM MPC8 AB1054 OXA-23 [2] | AZT MPC4 SHV-5 ec308 [3] | Ki (KPC-2, NCF), uM [4] | Ki [5] [nM] | Ki (OXA-48, NCF), uM [6] | Ki (CTX-M-14, NCF), uM [7] | Ki [8] [nM] | Ki (P99, NCF), uM [9] | AZT MPC4 SHV-12 KP1010 [10] | AZT MPC4 CMY-6 EC1010 [11] | AZT MPC4 ECL1002 [12] | AZT MPC4 TEM-10 ec302 [13] | AZT MPC4 KPC-2 KP1004 [14] | BPM MPC1 OXA-48 KP1086 [15] | AZT MPC4 CTX-M-15 KP1009 [16] | BPM MPC1 KP1004 KPC-2 [17] | MPM MPC8 AB1053 OXA-72 [18] | Ki ([8]; purified Pa-AmpC, nitrocefin (NCF) as reporter substrate, read-out: Ki (Pa-AmpC, NCF)) [nM] | Ki (P99, NCF), uM ([9]; purified P99, nitrocefin (NCF) as reporter substrate)
1 | O=C([O-])c1ccc2c(c1C(=O)[O-])O[B-](O)(O)CC2.[Na+].[Na+].[Na+] [Compound 53, Trisodium; 4,4-dihydroxy-5-oxa-4-boranuidabicyclo[4.4.0]deca-1(6),7,9-triene-7,8-dicarboxylate] | Z (Z = MPC@4 > 20 μg/mL) | X (X = MPC@1 ≤ 5 μg/mL) | Y (Y = 5 μg/mL < MPC@4 ≤ 20 μg/mL) | X (X = Ki ≤ 0.1 μM) | < 100 | X (X = Ki ≤ 0.1 μM) | X (X = Ki ≤ 0.1 μM) | < 100 | X (key: X = Ki ≤ 0.1 μM; Y = 0.1 μM < Ki ≤ 1 μM; Z = Ki > 1 μM) | X (X = MPC@4 ≤ 5 μg/mL) | X (X = MPC@4 ≤ 5 μg/mL) | X (X = MPC@4 ≤ 5 μg/mL) | Y (Y = 5 μg/mL < MPC@4 ≤ 20 μg/mL) | X (X = MPC@4 ≤ 5 μg/mL) | X (X = MPC@1 ≤ 5 μg/mL) | Y (Y = 5 μg/mL < MPC@4 ≤ 20 μg/mL) | X (X = MPC@1 ≤ 5 μg/mL) | X (X = MPC@1 ≤ 5 μg/mL) | – | –
2 | COc1ccc2c(c1C(=O)[O-])O[B-](O)(O)[C@@H](C)C2.[Na+].[Na+] [Compound 11, Disodium; (3S)-4,4-dihydroxy-8-methoxy-3-methyl-5-oxa-4-boranuidabicyclo[4.4.0]deca-1(6),7,9-triene-7-carboxylate] | Z (Z = MPC@4 > 20 μg/mL) | Y (Y = 5 μg/mL < MPC@1 ≤ 20 μg/mL) | Y (Y = 5 μg/mL < MPC@4 ≤ 20 μg/mL) | X (X = Ki ≤ 0.1 μM) | < 100 | X (X = Ki ≤ 0.1 μM) | X (X = Ki ≤ 0.1 μM) | < 100 | X (key: X = Ki ≤ 0.1 μM; Y = 0.1 μM < Ki ≤ 1 μM; Z = Ki > 1 μM) | Y (Y = 5 μg/mL < MPC@4 ≤ 20 μg/mL) | X (X = MPC@4 ≤ 5 μg/mL) | Y (Y = 5 μg/mL < MPC@4 ≤ 20 μg/mL) | Y (Y = 5 μg/mL < MPC@4 ≤ 20 μg/mL) | Y (Y = 5 μg/mL < MPC@4 ≤ 20 μg/mL) | Y (Y = 5 μg/mL < MPC@1 ≤ 20 μg/mL) | Y (Y = 5 μg/mL < MPC@4 ≤ 20 μg/mL) | X (X = MPC@1 ≤ 5 μg/mL) | X (X = MPC@1 ≤ 5 μg/mL) | – | –
3 | O=C([O-])c1c(OCc2ccncc2)ccc2c1O[B-](O)(O)CC2.[Na+].[Na+] [Compound 28, Disodium; 4,4-dihydroxy-8-(4-pyridylmethoxy)-5-oxa-4-boranuidabicyclo[4.4.0]deca-1(6),7,9-triene-7-carboxylate] | Z (Z = MPC@4 > 20 μg/mL) | X (X = MPC@1 ≤ 5 μg/mL) | Y (Y = 5 μg/mL < MPC@4 ≤ 20 μg/mL) | X (X = Ki ≤ 0.1 μM) | < 100 | X (X = Ki ≤ 0.1 μM) | X (X = Ki ≤ 0.1 μM) | < 100 | X (key: X = Ki ≤ 0.1 μM; Y = 0.1 μM < Ki ≤ 1 μM; Z = Ki > 1 μM) | X (X = MPC@4 ≤ 5 μg/mL) | X (X = MPC@4 ≤ 5 μg/mL) | Y (Y = 5 μg/mL < MPC@4 ≤ 20 μg/mL) | X (X = MPC@4 ≤ 5 μg/mL) | X (X = MPC@4 ≤ 5 μg/mL) | X (X = MPC@1 ≤ 5 μg/mL) | Y (Y = 5 μg/mL < MPC@4 ≤ 20 μg/mL) | X (X = MPC@1 ≤ 5 μg/mL) | X (X = MPC@1 ≤ 5 μg/mL) | – | –
4 | O=C(O)c1c(F)ccc2c1OB(O)COC2 [Compound 58, 8-Fluoro-2-hydroxy-3,5-dihydro-1,4,2-benzodioxaborepine-9-carboxylic acid] | Z (Z = MPC@4 > 20 μg/mL) | Z (Z = MPC@1 > 20 μg/mL) | Z (Z = MPC@4 > 20 μg/mL) | X (X = Ki ≤ 0.1 μM) | 100 to 1000 | X (X = Ki ≤ 0.1 μM) | X (X = Ki ≤ 0.1 μM) | – | – | Y (Y = 5 μg/mL < MPC@4 ≤ 20 μg/mL) | X (X = MPC@4 ≤ 5 μg/mL) | X (X = MPC@4 ≤ 5 μg/mL) | Z (Z = MPC@4 > 20 μg/mL) | X (X = MPC@4 ≤ 5 μg/mL) | X (X = MPC@1 ≤ 5 μg/mL) | Z (Z = MPC@4 > 20 μg/mL) | X (X = MPC@1 ≤ 5 μg/mL) | Z (Z = MPC@1 > 20 μg/mL) | < 100 | X (X = Ki ≤ 0.1 μM)
5 | CCOc1ccc2c(c1C(=O)[O-])O[B-](O)(O)CC2.[Na+].[Na+] [Compound 57, Disodium; 8-ethoxy-4,4-dihydroxy-5-oxa-4-boranuidabicyclo[4.4.0]deca-1(6),7,9-triene-7-carboxylate] | Y (Y = 5 μg/mL < MPC@4 ≤ 20 μg/mL) | X (X = MPC@1 ≤ 5 μg/mL) | X (X = MPC@4 ≤ 5 μg/mL) | X (X = Ki ≤ 0.1 μM) | < 100 | X (X = Ki ≤ 0.1 μM) | X (X = Ki ≤ 0.1 μM) | < 100 | X (key: X = Ki ≤ 0.1 μM; Y = 0.1 μM < Ki ≤ 1 μM; Z = Ki > 1 μM) | X (X = MPC@4 ≤ 5 μg/mL) | X (X = MPC@4 ≤ 5 μg/mL) | X (X = MPC@4 ≤ 5 μg/mL) | X (X = MPC@4 ≤ 5 μg/mL) | X (X = MPC@4 ≤ 5 μg/mL) | X (X = MPC@1 ≤ 5 μg/mL) | X (X = MPC@4 ≤ 5 μg/mL) | X (X = MPC@1 ≤ 5 μg/mL) | X (X = MPC@1 ≤ 5 μg/mL) | – | –
6 | O=C(O)c1c(-c2c[nH]nn2)ccc2c1O[B-](O)(O)CC2 [Compound 16, Disodium; 4,4-dihydroxy-8-(1H-triazol-5-yl)-5-oxa-4-boranuidabicyclo[4.4.0]deca-1(6),7,9-triene-7-carboxylate] | Y (Y = 5 μg/mL < MPC@4 ≤ 20 μg/mL) | Y (Y = 5 μg/mL < MPC@1 ≤ 20 μg/mL) | Y (Y = 5 μg/mL < MPC@4 ≤ 20 μg/mL) | X (X = Ki ≤ 0.1 μM) | < 100 | X (X = Ki ≤ 0.1 μM) | X (X = Ki ≤ 0.1 μM) | < 100 | X (key: X = Ki ≤ 0.1 μM; Y = 0.1 μM < Ki ≤ 1 μM; Z = Ki > 1 μM) | X (X = MPC@4 ≤ 5 μg/mL) | X (X = MPC@4 ≤ 5 μg/mL) | X (X = MPC@4 ≤ 5 μg/mL) | X (X = MPC@4 ≤ 5 μg/mL) | X (X = MPC@4 ≤ 5 μg/mL) | Y (Y = 5 μg/mL < MPC@1 ≤ 20 μg/mL) | X (X = MPC@4 ≤ 5 μg/mL) | X (X = MPC@1 ≤ 5 μg/mL) | X (X = MPC@1 ≤ 5 μg/mL) | – | –
